Values quoted from earlier work in patent publication US20140316333A1, “DISSOLVING SOLID SOLUTION PERFORATOR PATCH FOR MIGRAINE TREATMENT” (priority 2011, published 2014).

Details: oral dosage

## CN1C[C@H](C(=O)N[C@]2(C)O[C@@]3(O)[C@@H]4CCCN4C(=O)[C@H](Cc4ccccc4)N3C2=O)C[C@@H]2c3cccc4[nH]cc(c34)C[C@H]21 [DHE, dihydroergotamine]
  time to have efficacy for reducing migraine headache: 2 to 3 h
About 20-30 mg, estimated
  active unchanged drug that reaches the blood stream: 2-10%
